The values that follow come from patent US9458132B2, “Therapeutic compounds and compositions and their use as PKM2 modulators” (AGIOS PHARMACEUTICALS, INC., priority 2012, dated 2016).

The structures appear in SMILES notation. Some results are limits rather than exact numbers.

Experiment [1] deals with T1, PKR WT (Homo sapiens, UniProt P30613). As to the kind of experiment: PKR WT cell based assay AC50. The following applies: wild type PKR.
The target in experiment [2] is T1, PKR WT. As to the kind of experiment: PKR WT enzymatic assay AC50. Format: biochemical. Conditions: wild type PKR. The method, then:
(§1) • PKR or PKR mutant enzyme solution was diluted in assay buffer. • 2 μL of test compound was added into wells first, and then 180 μL reaction mix was added. • Reactions mixture with test compound was assembled except for ADP, and plates were stored for 60 minutes at room temperature. • 20 uL ADP was added to start reaction at room temperature and reaction progress was measured as changes in absorbance at 340 nm wavelength at room temperature.
(§2) Test Compound Preparation: • Test compound stock was made at 100x concentration in 100% DMSO (10 mM) • 1 to 3 dilutions were made for 11 points (i.e. 50 μl of first concentration added to 100 μl 100% DMSO to yield 3.33 mM, 50 μl of this added to 100 μl DMSO to yield 1.11 mM, and so forth) • 1 to 100 dilution into assay (2 μl in 200 μl) yielded starting concentration of 100 μM, decreasing 3 fold for 11 points • Assay Buffer: 100 mM KCl, 50 mM Tris 7.5, 5 mM MgCl2, 1 mM DTT, 0.03% BSA • Reaction Mixture: PKR mutant enzyme: 80-400 ng/well; ADP: 0.22-1.65 mM; PEP: 0.1-0.5 mM; NADH:180 uM; LDH: 0.5 units (Sigma#59023); DTT: 1 mM; BSA: 0.03%.
(§3) A compound described herein was diluted with DMSO and tested at 1 μM concentration. The enzyme was diluted in 1× Buffer: (100 mM KCl, 50 mM Tris 7.5, 5 mM MgCl2, 1 mM DTT, 0.03% BSA). 2 μL of compound solution was first added into wells, and then 180 μL of enzyme solution was added. Assays were assembled except for ADP, and plates were stored for 60 minutes at RT. 20 μL ADP was added to start the assay and assay output was evaluated using OD340 at SpectraMax. The assay was run at room temperature. • Final concentration: PKR wt (100 ng/well), Tris pH 7.5 (50 mM), KCl (100 mM), MgCl2 (5 mM), ADP (0.48 mM), PEP (0.15 mM), NADH (180 μM), LDH (0.5 units, Sigma 59023), DTT (1 mM) and BSA (0.03%).

For the next experiment, the target named is PKR R532W (Homo sapiens, UniProt P30613, R532W). Briefly: PKR mutant assay, PKR R532W AC50. It counts as biochemical. Conditions: mutant PKR R532W enzyme. The method, then:
as §1, §2
as §3, with “R532W” for “wt”, “(0.36” for “(0.48”, “(0.1” for “(0.15”

For the next experiment, the target named is PKR R510Q (Homo sapiens, UniProt P30613, R510Q). Briefly: PKR mutant assay, PKR R510Q AC50. The following applies: mutant PKR R510Q enzyme. Format: biochemical. As to the method:
as §1
as §2, with “0.03%. […]” for “0.03%.”

PKR R532W, sequence (P30613 whole entry R532W): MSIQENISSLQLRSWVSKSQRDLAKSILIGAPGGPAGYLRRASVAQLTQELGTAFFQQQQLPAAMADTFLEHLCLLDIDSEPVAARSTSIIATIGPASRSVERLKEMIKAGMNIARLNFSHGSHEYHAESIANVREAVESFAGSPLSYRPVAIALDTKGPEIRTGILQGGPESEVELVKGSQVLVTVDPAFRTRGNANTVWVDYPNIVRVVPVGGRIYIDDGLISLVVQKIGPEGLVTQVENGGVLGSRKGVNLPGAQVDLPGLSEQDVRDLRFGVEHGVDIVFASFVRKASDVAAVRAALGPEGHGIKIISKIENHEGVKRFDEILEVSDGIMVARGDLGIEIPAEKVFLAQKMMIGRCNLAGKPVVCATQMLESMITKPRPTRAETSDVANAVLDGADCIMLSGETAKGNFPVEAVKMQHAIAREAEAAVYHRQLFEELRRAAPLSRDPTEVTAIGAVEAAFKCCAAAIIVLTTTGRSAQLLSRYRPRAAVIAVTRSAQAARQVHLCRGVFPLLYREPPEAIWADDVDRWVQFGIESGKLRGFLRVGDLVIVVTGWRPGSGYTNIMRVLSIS
T1 sequence (P30613 whole entry): as the sequence (P30613 whole entry R532W) above, with W532R counted along it
PKR R510Q, sequence (P30613 whole entry R510Q): as the sequence (P30613 whole entry R532W) above, with R510Q, W532R counted along it

By AC50 is commonly meant the concentration at which the activity in the assay is half-maximal. Low values mean activity at low concentration, high ones activity only at high concentration. Regarding `O=C(c1ccc(NS(=O)(=O)c2cccc3cccnc23)cc1)N1CC(O)(c2cccc(F)c2)C1` [Compound 4, N-(4-(3-(3-fluorophenyl)-3-hydroxyazetidine-1-carbonyl)phenyl)quinoline-8-sulfonamide], the AC50 at PKR WT [1] was under 100 nM; on PKR WT [2], 101 to 1000 nM; on PKR R532W it was 101 to 1000 nM; on PKR R510Q, 1010 to 10000 nM.

Consider `Cc1cc(F)ccc1C1(O)CN(C(=O)c2ccc(NS(=O)(=O)c3cccc4cccnc34)cc2)C1` [Compound 12, N-(4-(3-(4-fluoro-2-methylphenyl)-3-hydroxyazetidine-1-carbonyl)phenyl)quinoline-8-sulfonamide], for which the AC50 at PKR WT [1] was 101 to 1000 nM; on PKR WT [2], under 100 nM; at PKR R532W, under 100 nM; at PKR R510Q, 101 to 1000 nM.

With `COc1cccc(C2(O)CN(C(=O)c3ccc(NS(=O)(=O)c4cccc5cccnc45)cc3)C2)c1` [Compound 61], the AC50 at PKR WT [1] was under 100 nM; at PKR WT [2] it was under 100 nM; at PKR R532W it was under 100 nM; on PKR R510Q, 101 to 1000 nM.

On to `COc1ncccc1C1(O)CN(C(=O)c2ccc(NS(=O)(=O)c3cccc4cccnc34)cc2)C1` [Compound 20, N-(4-(3-hydroxy-3-(2-methoxypyridin-3-yl)azetidine-1-carbonyl)phenyl)quinoline-8-sulfonamide], for which the half-maximal activity concentration (AC50) on PKR WT [1], at PKR WT [2], at PKR R532W and at PKR R510Q was 101 to 1000 nM throughout.

Consider `O=C(c1ccc(NS(=O)(=O)c2cccc3cccnc23)cc1)N1CC(O)(c2ccccc2Cl)C1` [Compound 5, N-(4-(3-(2-chlorophenyl)-3-hydroxyazetidine-1-carbonyl)phenyl)quinoline-8-sulfonamide], for which the AC50 at PKR WT [1] is 101 to 1000 nM; on PKR WT [2], under 100 nM; at PKR R532W, under 100 nM; at PKR R510Q it was 101 to 1000 nM.

Turning to `O=C(c1ccc(NS(=O)(=O)c2cccc3cccnc23)cc1)N1CC(O)(c2cccc(Cl)c2)C1` [Compound 11, N-(4-(3-(3-chlorophenyl)-3-hydroxyazetidine-1-carbonyl)phenyl)quinoline-8-sulfonamide], the AC50 at PKR WT [1] was 101 to 1000 nM; on PKR WT [2] it was under 100 nM; at PKR R532W it was under 100 nM; at PKR R510Q it was 101 to 1000 nM.

`O=C(c1ccc(NS(=O)(=O)c2cccc3cccnc23)cc1)N1CC(O)(c2ccccc2OC(F)(F)F)C1` [Compound 7, N-(4-(3-hydroxy-3-(2-(trifluoromethoxy)phenyl)azetidine-1-carbonyl)phenyl)quinoline-8-sulfonamide]: the AC50 on PKR WT [1] was 101 to 1000 nM; at PKR WT [2], 101 to 1000 nM; at PKR R532W it was under 100 nM; on PKR R510Q it was 101 to 1000 nM.

Consider `O=C(c1ccc(NS(=O)(=O)c2cccc3cccnc23)cc1)N1CC(O)(c2cccc(OC(F)(F)F)c2)C1` [Compound 10, N-(4-(3-hydroxy-3-(3-(trifluoromethoxy)phenyl)azetidine-1-carbonyl)phenyl)quinoline-8-sulfonamide], for which the AC50 on PKR WT [1] was 101 to 1000 nM; on PKR WT [2] it was under 100 nM; on PKR R532W, under 100 nM; at PKR R510Q it was 101 to 1000 nM.

Regarding `O=C(c1ccc(NS(=O)(=O)c2cccc3cccnc23)cc1)N1CC(O)(c2cccc(C(F)(F)F)c2)C1` [Compound 9, N-(4-(3-hydroxy-3-(3-(trifluoromethyl)phenyl)azetidine-1-carbonyl)phenyl)quinoline-8-sulfonamide], the AC50 on PKR WT [1], on PKR WT [2], at PKR R532W and on PKR R510Q was under 100 nM each time.

For the compound `CCCCC1(O)CN(C(=O)c2ccc(NS(=O)(=O)c3cccc4cccnc34)cc2)C1` [Compound 16, N-(4-(3-butyl-3-hydroxyazetidine-1-carbonyl)phenyl)quinoline-8-sulfonamide], the AC50 at PKR WT [1] was 101 to 1000 nM; on PKR WT [2], under 100 nM; on PKR R532W, 101 to 1000 nM; at PKR R510Q it was 101 to 1000 nM.

For `Cc1ccccc1C1(O)CN(C(=O)c2ccc(NS(=O)(=O)c3cccc4cccnc34)cc2)C1` [Compound 15, N-(4-(3-hydroxy-3-(o-tolyl)azetidine-1-carbonyl)phenyl)quinoline-8-sulfonamide], the AC50 was 101 to 1000 nM at PKR WT [1], under 100 nM on PKR WT [2], under 100 nM on PKR R532W and 101 to 1000 nM at PKR R510Q.

As to `O=C(c1ccc(NS(=O)(=O)c2cccc3c2OCCO3)cc1)N1CC(O)(Cc2ccccc2)C1` [Compound 53, N-(4-(3-benzyl-3-hydroxyazetidine-1-carbonyl)phenyl)-2,3-dihydrobenzo[b][1,4]dioxine-5-sulfonamide], the AC50 on PKR WT [1], at PKR WT [2], on PKR R532W and at PKR R510Q was under 100 nM in each case.
